How the values were obtained:
[1] = molar heat capacity at constant pressure; xn = mol fraction of the nth substance listed; settings: 102.6 kPa, Liquid, Large sample (1 g) DSC, x1 = 0.107
[2] = refractive index (other wavelength) (dimensionless); xn = mol fraction of the nth substance listed; settings: 108 kPa, Liquid, Wavelength=632.8 nm, minimum deviation method

CCCCn1cc[n+](C)c1.F[P-](F)(F)(F)(F)F [1-butyl-3-methylimidazolium hexafluorophosphate] + CCO
[1]
Settings | molar heat capacity at constant pressure [J/K/mol]
342.93 K | 175.43
343.26 K | 175.79
343.6 K | 175.65
343.91 K | 175.72
344.24 K | 175.72
344.56 K | 175.79
344.9 K | 175.86
345.21 K | 176.08
345.55 K | 175.93
345.87 K | 175.86
346.19 K | 176.15
346.54 K | 176.65
346.86 K | 176.43
347.17 K | 177.08
347.51 K | 176.72
347.82 K | 176.65
348.15 K | 176.79

[2]
Settings | refractive index
315.21 K, x1 = 1 | 1.4038
317.26 K, x1 = 1 | 1.4032
319.23 K, x1 = 1 | 1.4027
320.24 K, x1 = 0.3 | 1.3841
320.24 K, x1 = 0.4 | 1.3889
320.24 K, x1 = 0.901 | 1.4008
320.25 K, x1 = 0.6 | 1.3951
320.25 K, x1 = 0.7 | 1.3973
320.26 K, x1 = 0.801 | 1.3992
320.27 K, x1 = 0.5 | 1.3923
321.27 K, x1 = 0.3 | 1.3838
321.27 K, x1 = 0.801 | 1.3989
321.27 K, x1 = 0.901 | 1.4005
321.28 K, x1 = 0.7 | 1.3971
321.29 K, x1 = 0.4 | 1.3886
321.29 K, x1 = 0.6 | 1.3949
321.35 K, x1 = 0.5 | 1.392
321.47 K, x1 = 1 | 1.4021
322.24 K, x1 = 0.3 | 1.3835
322.27 K, x1 = 0.7 | 1.3968
322.27 K, x1 = 0.901 | 1.4002
322.29 K, x1 = 0.4 | 1.3884
322.29 K, x1 = 0.5 | 1.3918
322.29 K, x1 = 0.6 | 1.3945
322.29 K, x1 = 0.801 | 1.3987
323.24 K, x1 = 0.901 | 1.4
323.25 K, x1 = 0.3 | 1.3832
323.27 K, x1 = 0.5 | 1.3915
323.28 K, x1 = 0.801 | 1.3984
323.3 K, x1 = 0.4 | 1.388
323.3 K, x1 = 0.6 | 1.3943
323.3 K, x1 = 0.7 | 1.3965
323.47 K, x1 = 1 | 1.4016
323.58 K, x1 = 0.2 | 1.3759
324.23 K, x1 = 0.801 | 1.3981
324.23 K, x1 = 0.901 | 1.3997
324.24 K, x1 = 0.7 | 1.3962
324.26 K, x1 = 0.3 | 1.3828
324.28 K, x1 = 0.4 | 1.3877
324.28 K, x1 = 0.6 | 1.394
324.3 K, x1 = 0.5 | 1.3912
324.56 K, x1 = 0.2 | 1.3756
325.26 K, x1 = 0.801 | 1.3979
325.28 K, x1 = 0.4 | 1.3874
325.28 K, x1 = 0.6 | 1.3938
325.31 K, x1 = 0.3 | 1.3825
325.31 K, x1 = 0.901 | 1.3994
325.32 K, x1 = 0.7 | 1.396
325.34 K, x1 = 0.5 | 1.3909
325.4 K, x1 = 1 | 1.4011
325.42 K, x1 = 0.1 | 1.3647
325.63 K, x1 = 0.2 | 1.3753
326.48 K, x1 = 0.4 | 1.387
326.51 K, x1 = 0.3 | 1.3822
326.58 K, x1 = 0.801 | 1.3975
326.59 K, x1 = 0.901 | 1.3991
326.6 K, x1 = 0.5 | 1.3905
326.6 K, x1 = 0.6 | 1.3934
326.61 K, x1 = 0.7 | 1.3956
326.64 K, x1 = 0.1 | 1.3643
327.05 K, x1 = 0.2 | 1.3748
327.64 K, x1 = 0.4 | 1.3867
327.65 K, x1 = 0.5 | 1.3902
327.67 K, x1 = 0.6 | 1.3931
327.73 K, x1 = 0.7 | 1.3953
327.75 K, x1 = 0.3 | 1.3817
327.86 K, x1 = 0.1 | 1.3639
327.91 K, x1 = 0.901 | 1.3987
327.93 K, x1 = 0.801 | 1.3972
328.27 K, x1 = 0.2 | 1.3744
328.91 K, x1 = 0.1 | 1.3636
329.44 K, x1 = 0.1 | 1.3634

Source: the NIST ThermoML archive (doi:10.1016/j.jct.2017.07.014)
